{"source": "patent US4757089A", "about": "“Increasing aqueous humor outflow” (Massachusetts Eye and Ear Infirmary, priority 1986, dated 1988)", "key": {"calf eye": {"system": "calf eye", "conditions": "perfused calf eye, 15 mm Hg, 22° C.; cited from earlier work"}, "monkey eye": {"system": "monkey eye", "conditions": "perfused monkey eye, 15 mm Hg, 22° C.; cited from earlier work"}, "Water solubility": {"assay": "Water solubility", "type": "physicochemical", "conditions": "volume not given"}, "aqueous humor outflow": {"system": "aqueous humor outflow", "assay": "Two-step constant pressure perfusion, aqueous humor outflow facility in monkeys", "type": "in vivo, cynomologous monkeys", "description": "(§1) Ethacrynic acid (sodium salt) was used to increase aqueous humor outflow in cynomologous monkeys, as described below. Ethacrynic acid can be purchased from Merck, Sharp, and Dome, and is described in U.S. Pat. No. 3,255,241, hereby incorporated by reference. Ethacrynic acid has the chemical formula [2,3-dichloro-4-(2-methylene-1-oxobutyl) phenoxy] acetic acid. Any suitable analogs described in U.S. Pat. No. 3,255,241 can also be used as described herein.\nEach animal was randomly assigned one eye for the experimental and the other for its control perfusion. The animals were fasted the night before the experiment. They were anesthetized intramusclarly with Methohexital Sodium 15 mg/kg and Pentobarbital Sodium 35 mg/kg. Supplemental anesthesia as required was carried out with Pentobarbital 10 mg/kg/hour. Needles were placed through the cornea into the anterior chamber and a two-step constant pressure perfusion method was performed in order to determine aqueous humor outflow facility. […]\nEach vial of ethacrynic acid contained ethacrynate sodium powder equivalent to 50 mg of ethacrynic acid. […] The solution was mixed at room temperature until dissolved, and the pH was determined (always 7.2) before use; the solution was filtered with a 0.2 micron filter (Nuclepore); this produced a solution which was stable for twenty four hours. […]"}, "eye [1]": {"system": "eye", "assay": "Ocular changes and side effects after anterior chamber perfusion in monkeys", "type": "in vivo, cynomologous monkeys", "description": "as §1\n(§2) Each animal was randomly assigned one eye for the experimental and the other for its control perfusion. The animals were fasted the night before the experiment. They were anesthetized intramusclarly with Methohexital Sodium 15 mg/kg and Pentobarbital Sodium 35 mg/kg. Supplemental anesthesia as required was carried out with Pentobarbital 10 mg/kg/hour. Needles were placed through the cornea into the anterior chamber and a two-step constant pressure perfusion method was performed in order to determine aqueous humor outflow facility. The basic medium for perfusion was Dulbecco's phosphate buffered saline with added 5.5 mM glucose. A 10 microliter bolus of the experimental or control solution (that would produce the desired final concentration in the anterior chamber) was injected through a T shaped connector piece in the infusion line.\n(§3) Each vial of ethacrynic acid contained ethacrynate sodium powder equivalent to 50 mg of ethacrynic acid. […] The powder was diluted with the above basic medium (Dulbecco's with added glucose) to yield the desired concentration. The solution was mixed at room temperature until dissolved, and the pH was determined (always 7.2) before use; the solution was filtered with a 0.2 micron filter (Nuclepore); this produced a solution which was stable for twenty four hours.\nDuring perfusion experiments, a 10 microliter bolus injection was made using a Hamilton syringe. Since the monkey anterior chamber is approximately 200 microliters, our calculations were as follows. To achieve a final concentration of 0.5 mM ethacrynic acid, 10 microliters of 10 mM ethacrynic acid was infused.\nExperiments were carried out using final ethacrynic acid concentrations in the aqueous humor of 0.1 mM to 0.5 mM. There were at least three animals and separate experiments carried out for each of the concentrations […], 0.25 mM, and […]."}, "intraocular pressure [2]": {"system": "intraocular pressure", "assay": "Intraocular pressure in monkeys a few days after perfusion", "type": "in vivo, cynomologous monkeys", "conditions": "both eyes", "procedure": "as §2"}, "intraocular pressure [3]": {"system": "intraocular pressure", "assay": "Intraocular pressure after topical instillation in rabbits (Digilab Pneumotonometer)", "type": "in vivo, Dutch-belted rabbits", "conditions": "10 mM and 3% methylcellulose, twenty four hours after instillation, fourteen rabbits, changed from 23.0, p less than 0.001, control eye 22.9 to 24.2", "procedure": "For rabbit experiments Dutch-belted rabbits of either sex weighing 1.5 to 2 kg were used for topical studies. Each animal was randomly assigned one eye for the experimental and the other for its control solution. Intraocular pressure was measured using a Digilab Pneumotonometer. Any animals showing asymmetry of intraocular pressure greater than 2 mm were excluded form the study.\nThe protocol was as follows. Baseline intraocular pressure was taken in each eye using 0.5% proparacaine hydrochloride for topical anesthesia. Then a 100 microliter drop of either control solution or ethacrynic acid dissolved in 3% methylcellulose was instilled into one of the two eyes. In a half hour this was repeated. Two hours later intraocular pressure was measured in each eye. In some animals intraocular pressure was also measured five hours later and all animals had measurement of intraocular pressure the following day.\nEthcrynic acid powder was dissolved in 3% methylcellulose to yield the desired concentration. The solution was mixed at room temperature for one hour and was stable for twenty four hours. A similar osmotically balanced control solution was prepared. […] The pH of the solution was determined by mixing one part of the control or experimental solution with five parts of distilled water. […]"}, "eye [4]": {"system": "eye", "assay": "Ocular side effects after topical instillation in rabbits", "type": "in vivo, Dutch-belted rabbits"}, "[5]": {"type": "physicochemical", "procedure": "as §3\nEthcrynic acid powder was dissolved in 3% methylcellulose to yield the desired concentration. The solution was mixed at room temperature for one hour and was stable for twenty four hours. A similar osmotically balanced control solution was prepared. 3% methylcellulose was prepared as follows: methylcellulose powder (4000 CPS) was obtained from Dow company (lot number 14728). A 3% solution was prepared from powder dissolved in distilled water using low heat for several hours. The solution was refrigerated over night to yield a transparent, viscous fluid. The pH of the solution was determined by mixing one part of the control or experimental solution with five parts of distilled water. The pH ranged between 6.2 and 6.5 for both the control and experimental solutions. The 3% methylcellulose solution was refrigerated when not in use."}}, "note": "Counter-ions that a name gives are not always drawn. Like-named read-outs stand apart in the source and are kept apart here."}
{"compound": "CCN1C(=O)C=CC1=O", "note": "[NEM, N-ethylmaleimide]", "values": [{"measurement": "dosage producing a significant increase in the facility of outflow", "setting": "calf eye", "value": "≥ 4.7", "unit": "mM"}, {"measurement": "effect on outflow in the monkey eye", "setting": "monkey eye", "value": "increase in outflow"}]}
{"compound": "C=C(CC)C(=O)c1ccc(OCC(=O)O)c(Cl)c1Cl", "note": "[sodium salt of ethacrynic acid]", "values": [{"measurement": "solubility in water", "setting": "Water solubility", "value": "about 0.04 g"}]}
{"compound": "C=C(CC)C(=O)c1ccc(OCC(=O)O)c(Cl)c1Cl", "note": "[ethacrynic acid, [2,3-dichloro-4-(2-methylene-1-oxobutyl)phenoxy] acetic acid]", "values": [{"measurement": "outflow facility response", "setting": "aqueous humor outflow; 0.25 mM final concentration", "value": "approximately half the animals perfused responded with a substantial increase in outflow facility"}, {"measurement": "outflow facility effect", "setting": "aqueous humor outflow; lower dosages (below 0.25 mM; 0.1 mM tested)", "value": "no effect"}, {"measurement": "pupil dilation in treated eye", "setting": "eye [1]; dosages above 0.25 mM", "value": "some of the animals developed a dilated pupil"}, {"measurement": "adhesions of the iris to the peripheral cornea", "setting": "eye [1]; experimental and control eyes, believed to result from perfusion technique", "value": "A small number of animals in both the experimental and control eyes developed adhesions of the iris to the peripheral cornea"}, {"measurement": "chronic corneal edema, opacities or cataract formation", "setting": "eye [1]; monkey perfusion", "value": "no chronic corneal edema or opacities or cataract formation"}, {"measurement": "corneal or crystalline lens changes", "setting": "eye [1]; monkey perfusion", "value": "no apparent corneal or crystalline lens changes"}, {"measurement": "intraocular pressure", "setting": "intraocular pressure [2]", "value": "symmetrical and normal in both eyes"}, {"measurement": "intraocular pressure in treated eye, 24 h", "setting": "intraocular pressure [3]", "value": 20.0, "unit": "mmHg"}, {"measurement": "conjunctival injection", "setting": "eye [4]; 5 mM, topical", "value": "slight conjunctival injection"}, {"measurement": "conjunctival injection and irritation", "setting": "eye [4]; 10 mM, topical", "value": "moderate conjunctival injection and signs of irritation"}, {"measurement": "reversibility of corneal toxicity and inflammation", "setting": "eye [4]; higher concentrations (above 10 mM)", "value": "resolved without apparent seguelae"}, {"measurement": "corneal toxicity and anterior chamber inflammation", "setting": "eye [4]; higher concentrations (above 10 mM), for several days", "value": "signs of corneal toxicity (corneal edema) and anterior chamber inflammation"}, {"measurement": "stability of solution", "setting": "[5]", "value": "twenty four"}, {"measurement": "stability of solution", "setting": "[5]; pH 7.2", "value": "twenty four"}]}
